Measured values taken from ChEMBL document CHEMBL1149221, “Terephthalamide derivatives as mimetics of the helical region of Bak peptide target Bcl-xL protein” (Bioorg Med Chem Lett, 2004).

target: Bcl-2-like protein 1 (Homo sapiens, UniProt Q07817); test: Binding affinity for Bcl-xL was assessed by a fluorescence polarization assay using a fluorescently labeled 16-mer Bak-peptide
Sequence (Q07817 whole entry): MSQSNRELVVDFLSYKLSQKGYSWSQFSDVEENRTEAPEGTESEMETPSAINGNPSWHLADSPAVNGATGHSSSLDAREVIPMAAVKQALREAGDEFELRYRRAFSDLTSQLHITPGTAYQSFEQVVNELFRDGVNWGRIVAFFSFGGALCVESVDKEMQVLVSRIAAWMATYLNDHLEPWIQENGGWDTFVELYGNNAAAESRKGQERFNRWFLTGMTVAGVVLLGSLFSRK

| Compound | Ki |
| --- | --- |
| CC(C)CC(NC(=O)c1ccc(C(=O)N[C@@H](CC(C)C)C(=O)O)c(Oc2cccc3ccccc23)c1)C(=O)O (stereo partly specified) | > 30 µM |
| COC(=O)[C@@H](NC(=O)c1ccc(C(=O)N(C(C)C)C(C)C)cc1OC(C)C)C(C)C | 5.85 µM |
| COC(=O)[C@@H](NC(=O)c1ccc(C(=O)N(C(C)C)C(C)C)cc1OC(C)C)c1ccccc1 | 10.9 µM |
| CC(C)CC(NC(=O)c1ccc(C(=O)N[C@@H](CC(C)C)C(=O)O)c(Oc2ccccc2)c1)C(=O)O (stereo partly specified) | > 30 µM |
| COC(=O)[C@@H](CC(C)C)NC(=O)c1ccc(C(=O)N(C(C)C)C(C)C)cc1OC | 1.78 µM |
| CC(C)C[C@H](NC(=O)c1ccc(C(=O)N(C(C)C)C(C)C)cc1Oc1cccc2ccccc12)C(=O)O | 7.63 µM |

Next, values leading:

| Ki | Compound |
| --- | --- |
| 11 µM | COC(=O)[C@H](C)NC(=O)c1ccc(C(=O)N(C(C)C)C(C)C)cc1OC(C)C |
| > 30 µM | CC(C)C[C@H](NC(=O)c1ccc(C(=O)N(CC(C)C)C(C(=O)O)C(C)C)cc1OC(C)C)C(=O)O (stereo partly specified) |
| 1.01 µM | CC(C)C[C@H](NC(=O)c1ccc(C(=O)N(C(C)C)C(C)C)cc1Oc1ccccc1)C(=O)O |
| > 30 µM | CC(C)C[C@H](NC(=O)c1ccc(C(=O)N(CC(C)C)C(C)C(=O)O)cc1OC(C)C)C(=O)O (stereo partly specified) |
| > 30 µM | COC(=O)CNC(=O)c1ccc(C(=O)N(C)C)cc1 |
